According to patent publication US12679878B2, “CRF2 receptor agonists and their use in therapy” (SANOFI, priority 2020, dated 2026):
Starred links: 1 amine or outer side, 2 acyl side, 3 side chain; linkers in the order of their positions; H or OH if unused. Residues, ends and D or L forms follow the SMILES beside them. Groups on a side chain read outwards from the residue. No end group written: not given here. *: point of attachment. C18 diacid = O=C(O)CCCCCCCCCCCCCCCCC(=O)*; γGlu = O=C(O)[C@H](CCC(=O)[*:2])N[*:1]; Palmitoyl = CCCCCCCCCCCCCCCC(=O)*; AEEA = NCCOCCOCC(=O)O

T1: recombinant human CRF2 (HEK cell membranes) (human, UniProt Q13324 1-411)
T1 construct: Whole receptor in membranes prepared from HEK cells; also called CRF2a (h); CRF2 receptor
T1 sequence (looked up): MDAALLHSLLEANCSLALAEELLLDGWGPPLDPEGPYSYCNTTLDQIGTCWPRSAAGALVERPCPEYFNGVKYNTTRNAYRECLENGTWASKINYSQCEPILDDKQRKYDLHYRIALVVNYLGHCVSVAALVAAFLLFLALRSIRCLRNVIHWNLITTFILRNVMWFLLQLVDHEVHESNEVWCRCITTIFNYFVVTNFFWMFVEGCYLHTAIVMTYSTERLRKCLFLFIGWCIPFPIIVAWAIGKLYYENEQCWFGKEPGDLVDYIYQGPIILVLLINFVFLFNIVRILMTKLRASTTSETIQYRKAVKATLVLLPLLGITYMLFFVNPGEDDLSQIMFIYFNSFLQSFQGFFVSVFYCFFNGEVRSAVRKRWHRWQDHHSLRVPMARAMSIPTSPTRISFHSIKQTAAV

T2: anti-target CRF1R receptor (UniProt P34998 24-415, limits assumed)
T2 sequence (looked up): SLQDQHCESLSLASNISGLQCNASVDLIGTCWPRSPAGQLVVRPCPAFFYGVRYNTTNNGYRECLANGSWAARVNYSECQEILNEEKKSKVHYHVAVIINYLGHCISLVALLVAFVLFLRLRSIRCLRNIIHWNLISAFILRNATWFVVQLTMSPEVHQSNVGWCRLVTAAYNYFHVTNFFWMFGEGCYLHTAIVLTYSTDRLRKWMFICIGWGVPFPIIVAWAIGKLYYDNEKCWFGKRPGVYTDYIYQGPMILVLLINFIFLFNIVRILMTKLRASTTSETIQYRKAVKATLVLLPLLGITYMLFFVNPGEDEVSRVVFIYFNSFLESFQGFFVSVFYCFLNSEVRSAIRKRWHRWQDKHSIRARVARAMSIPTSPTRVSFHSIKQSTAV

B1: peptide of SEQ ID NO: 17 (peptide)
peptide: IVLSLDVPIKLK([γGlu-Palmitoyl])KILLEQEKQKKQREQAETNKQILAQV-NH2
modifications: N-terminus assumed
SMILES: CCCCCCCCCCCCCCCC(=O)N[C@@H](CCC(=O)NCCCC[C@H](NC(=O)[C@H](CC(C)C)NC(=O)[C@H](CCCCN)NC(=O)[C@@H](NC(=O)[C@@H]1CCCN1C(=O)[C@@H](NC(=O)[C@H](CC(=O)O)NC(=O)[C@H](CC(C)C)NC(=O)[C@H](CO)NC(=O)[C@H](CC(C)C)NC(=O)[C@@H](NC(=O)[C@@H](N)[C@@H](C)CC)C(C)C)C(C)C)[C@@H](C)CC)C(=O)N[C@@H](CCCCN)C(=O)N[C@H](C(=O)N[C@@H](CC(C)C)C(=O)N[C@@H](CC(C)C)C(=O)N[C@@H](CCC(=O)O)C(=O)N[C@@H](CCC(N)=O)C(=O)N[C@@H](CCC(=O)O)C(=O)N[C@@H](CCCCN)C(=O)N[C@@H](CCC(N)=O)C(=O)N[C@@H](CCCCN)C(=O)N[C@@H](CCCCN)C(=O)N[C@@H](CCC(N)=O)C(=O)N[C@@H](CCCNC(=N)N)C(=O)N[C@@H](CCC(=O)O)C(=O)N[C@@H](CCC(N)=O)C(=O)N[C@@H](C)C(=O)N[C@@H](CCC(=O)O)C(=O)N[C@H](C(=O)N[C@@H](CC(N)=O)C(=O)N[C@@H](CCCCN)C(=O)N[C@@H](CCC(N)=O)C(=O)N[C@H](C(=O)N[C@@H](CC(C)C)C(=O)N[C@@H](C)C(=O)N[C@@H](CCC(N)=O)C(=O)N[C@H](C(N)=O)C(C)C)[C@@H](C)CC)[C@@H](C)O)[C@@H](C)CC)C(=O)O
B2: peptide of SEQ ID NO: 68 (peptide)
peptide: IVLSLDVPIKLK([AEEA-AEEA-γGlu-C18 diacid])QILLEQERQKKQREQAETNKQILAQV-NH2
modifications: N-terminus assumed
SMILES: CC[C@H](C)[C@H](N)C(=O)N[C@H](C(=O)N[C@@H](CC(C)C)C(=O)N[C@@H](CO)C(=O)N[C@@H](CC(C)C)C(=O)N[C@@H](CC(=O)O)C(=O)N[C@H](C(=O)N1CCC[C@H]1C(=O)N[C@H](C(=O)N[C@@H](CCCCN)C(=O)N[C@@H](CC(C)C)C(=O)N[C@@H](CCCCNC(=O)COCCOCCNC(=O)COCCOCCNC(=O)CC[C@H](NC(=O)CCCCCCCCCCCCCCCCC(=O)O)C(=O)O)C(=O)N[C@@H](CCC(N)=O)C(=O)N[C@H](C(=O)N[C@@H](CC(C)C)C(=O)N[C@@H](CC(C)C)C(=O)N[C@@H](CCC(=O)O)C(=O)N[C@@H](CCC(N)=O)C(=O)N[C@@H](CCC(=O)O)C(=O)N[C@@H](CCCNC(=N)N)C(=O)N[C@@H](CCC(N)=O)C(=O)N[C@@H](CCCCN)C(=O)N[C@@H](CCCCN)C(=O)N[C@@H](CCC(N)=O)C(=O)N[C@@H](CCCNC(=N)N)C(=O)N[C@@H](CCC(=O)O)C(=O)N[C@@H](CCC(N)=O)C(=O)N[C@@H](C)C(=O)N[C@@H](CCC(=O)O)C(=O)N[C@H](C(=O)N[C@@H](CC(N)=O)C(=O)N[C@@H](CCCCN)C(=O)N[C@@H](CCC(N)=O)C(=O)N[C@H](C(=O)N[C@@H](CC(C)C)C(=O)N[C@@H](C)C(=O)N[C@@H](CCC(N)=O)C(=O)N[C@H](C(N)=O)C(C)C)[C@@H](C)CC)[C@@H](C)O)[C@@H](C)CC)[C@@H](C)CC)C(C)C)C(C)C

How the values were obtained:
[1] = Effect on blood pressure, telemetry (Example 17); assay type: in vivo; conditions: Sprague Dawley rats, 0.1 mg/kg SC
In short: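 Sprague Dawley rats with an aortic-catheter telemetry implant, recovered at least 2 weeks, given compound or vehicle at 0.1 mg/kg SC. HR, SBP, DBP and MBP recorded continuously for 48 h. Each 4-hour post-dose mean was compared with a 1-hour pre-dose basal mean.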

[2] = Effect on body mass, body fat content and food intake in high-fat diet fed (DIO) mice (Example 18); assay type: in vivo, C57BL/6N Crl mice
Description: The peptide of SEQ ID NO: 35 was assessed for its ability to reduce body mass and body fat content in mice. Its efficacy was compared with that of a reference compound, namely the compound of Example 4 of WO2018013803 (Alsina-Fernandez; Eli Lilly and Company), referred to herein as “Compound A”.
Female C57BL/6N Crl mice were group housed under vivarium conditions that included a 12 h light/dark cycle and a room temperature of 23±1° C. All animals had free access to water and diet (Ssniff adjusted high fat diet: TD.97366, Soest, Germany) for 18 weeks prior to pharmacological intervention (dosing phase). After the pre-feeding period, mice were single housed and randomized according to body weight to treatment groups with n=8, so that each group has similar mean body weight. At the start of the study, mice were between 25-26 weeks old with body weight of 42-50 g. Mice were treated every second day during late afternoon hours prior lights off with a subcutaneous injection of 8 nmol/kg of the test compounds or their vehicle (phosphate-buffered saline (PBS). Body weight and food intake were measured daily throughout the dosing phase while body fat content was measured at day 0 prior to the start of treatment and at day 15. The study was terminated on day 15.
For statistical analyses a One-Way Analysis of Variance (ANOVA) was performed with SigmaStat 3.5. The test was performed with a risk alpha of 0.050 and a comparison versus the high fat diet-Vehicle group was performed with Dunnett's tests.

[3] = molecular target: T1, recombinant human CRF2 (HEK cell …); experiment: radioligand competition against [125]sauvagine (0.1 nM), HEK membranes with recombinant human CRF2; Cheng Prusoff
Description: (§1) HEK cells expressing recombinant human CRF2 were used as a source of receptor for membrane preparation.
(§2) IC50 values (concentration causing a half-maximal inhibition of control specific binding) and Hill coefficients (nH) were determined by non-linear regression analysis of the competition curves generated with mean replicate values using Hill equation curve fitting. The inhibition constants (Ki) were calculated using the Cheng Prusoff equation [Ki=IC50/(1+L/KD) where L is the concentration of radioligand in the assay, and KD is the affinity of the radioligand for the receptor). A Scatchard plot was used to determine the KD.

[4] = molecular target: T1, recombinant human CRF2 (HEK cell …); experiment: Hill coefficient of the competition curve against [125]sauvagine, HEK membranes with recombinant human CRF2
Description: as §1, §2

rat CRF2R α receptor = rat CRF2R α receptor (rat, UniProt P47866 20-411); experiment: cell-based or functional assay
[5] = molecular target: T2, anti-target CRF1R receptor; experiment: cell-based or functional assay

Row | Molecule | Duration (h): last time point for which a significant effect on BP was still seen [1] [h] | Effect on Systolic Pressure % change from baseline 8 h ([1]; 8 h) [%] | Effect on Systolic Pressure % change from baseline 24 h ([1]; 24 h) [%] | cumulative food intake over 15 days ([2]; 8 nmol/kg s.c. every second day) [g] | lean mass change ([2]; 8 nmol/kg s.c. every second day, 15 days) [%] | relative body weight change ([2]; 8 nmol/kg s.c. every second day, 15 days, mean±SEM) [%] | reduction in body fat content ([2]; 8 nmol/kg s.c. every second day, day 15 vs day 0) [%] | food intake after first administration ([2]; 8 nmol/kg s.c., normalized after second treatment (FIG. 1)) | Ki [3] [nM] | nH [4] | EC50 [nM], 0% HSA (cAMP, A7R5 cells) (rat CRF2R α receptor) [nM] | EC50[nM] 0% HSA (cAMP, CRF1R-overexpression CHO cells) [5] [nM] | Emax (%) (cAMP, CRF1R-overexpression CHO cells) [5]
1 | CC[C@H](C)[C@H](N)C(=O)N[C@H](C(=O)N[C@@H](CC(C)C)C(=O)N[C@@H](CO)C(=O)N[C@@H](CC(C)C)C(=O)N[C@@H](CC(=O)O)C(=O)N[C@H](C(=O)N1CCC[C@H]1C(=O)N[C@H](C(=O)N[C@@H](CCCCN)C(=O)N[C@@H](CC(C)C)C(=O)N[C@@H](CCCCNC(=O)COCCOCCNC(=O)COCCOCCNC(=O)CC[C@H](NC(=O)CCCCCCCCCCCCCCCCC(=O)O)C(=O)O)C(=O)N[C@@H](CCCCN)C(=O)N[C@H](C(=O)N[C@@H](CC(C)C)C(=O)N[C@@H](CC(C)C)C(=O)N[C@@H](CCC(=O)O)C(=O)N[C@@H](CCC(N)=O)C(=O)N[C@@H](CCC(=O)O)C(=O)N[C@@H](CCCCN)C(=O)N[C@@H](CCC(N)=O)C(=O)N[C@@H](CCCCN)C(=O)N[C@@H](CCCCN)C(=O)N[C@@H](CCC(N)=O)C(=O)N[C@@H](CCCNC(=N)N)C(=O)N[C@@H](CCC(=O)O)C(=O)N[C@@H](CCC(N)=O)C(=O)N[C@@H](C)C(=O)N[C@@H](CCC(=O)O)C(=O)N[C@H](C(=O)N[C@@H](CC(N)=O)C(=O)N[C@@H](CCCCN)C(=O)N[C@@H](CCC(N)=O)C(=O)N[C@H](C(=O)N[C@@H](CC(C)C)C(=O)N[C@@H](C)C(=O)N[C@@H](CCC(N)=O)C(=O)N[C@H](C(N)=O)C(C)C)[C@@H](C)CC)[C@@H](C)O)[C@@H](C)CC)[C@@H](C)CC)C(C)C)C(C)C [SEQ ID NO: 35] (H-IVLSLDVPIKLK([AEEA-AEEA-γGlu-C18 diacid])KILLEQEKQKKQREQAETNKQILAQV-NH2) | 30 | −14.1 | −5.0 | 39.3 ± 2.5 | −6.3±1.7 | −10.8±1.4 | −34.2±2.9 | meaningful reduction of food intake | – | – | – | – | –
2 | B1 | – | – | – | – | – | – | – | – | 4.4 | 1.5 | – | – | –
3 | B2 | – | – | – | – | – | – | – | – | 5.4 | 0.8 | 1.74 | > 1000 | 12.3
